US10273248B2, “Glucose uptake inhibitors” (Kadmon Corporation LLC, priority 2015, dated 2019)
Structures can show the parent of a compound that is named as a salt.

System: glycolysis in HT1080 cells
Assay: Glycolysis assay: oligomycin plus compound, cellular ATP by Cell Titer Glo
Type: cell-based
Details: one hour; for IC50: Homo sapiens, HT-1080, 1 h, 10 μM oligomycin, class symbols
Description: Therefore, an assay was developed that utilizes the combination of the glucose uptake inhibitors disclosed herein with oligomycin, a well-characterized inhibitor of ATP synthase. Because oligomycin inhibits ATP derived from oxidative phosphorylation, any remaining ATP production is derived from glycolysis. By reading out cellular ATP levels using the Promega Cell Titer Glo kit, the extent of glycolysis inhibition by the glucose uptake inhibitors disclosed herein can be assessed. […] Utilizing this experimental set-up, the IC50 of glycolysis inhibition for each compound can be determined.
Determination of Glucose Uptake/GLUT Activity (Glycolysis Assay):
HT1080 cells (as well as other cell types) were plated to confluency in 96-well plates. Cells were exposed to the combination of 10 μM Oligomycin (to block mitochondrial-derived ATP) and the glucose uptake inhibitors disclosed herein for one-hour, after which glycolytically-derived ATP was measured with the Cell Titer-Glo assay kit (Promega). Dose-response curves of the glucose uptake inhibitors disclosed herein were used to determine the IC50 for GLUT activity.

Row | Structure (SMILES) | IC50 [nM] | cellular ATP levels, agent alone (alone)
1 | CC(C)CNC(=O)COc1cccc(-c2nc(Nc3ccc(-c4cn[nH]c4)cc3)c3cnn(C)c3n2)c1 [Example 57, 2-(3-(4-((4-(1H-pyrazol-4-yl)phenyl)amino)-1-methyl-1H-pyrazolo[3,4-d]pyrimidin-6-yl)phenoxy)-N-isobutylacetamide] | 101 to 250 | 
2 | O=C(COc1cccc(-c2nc(Nc3ccc(-c4cn[nH]c4)cc3)c3ccsc3n2)c1)NC1CCCC1 [Example 28] | 101 to 250 | 
3 | O=C(COc1cccc(-c2nc3c(c(Nc4ccc(-c5cn[nH]c5)cc4)n2)COC3)c1)N1CCOCC1 [Example 37, 2-(3-(4-((4-(1H-pyrazol-4-yl)phenyl)amino)-5,7-dihydrofuro[3,4-d]pyrimidin-2-yl)phenoxy)-1-morpholinoethan-1-one] | > 1000 | 
4 | Cn1ncc2c(Nc3ccc(-c4cn[nH]c4)cc3)nc(-c3cccc(OCC(=O)NC4CCC4)c3)nc21 [Example 54, 2-(3-(4-((4-(1H-pyrazol-4-yl)phenyl)amino)-1-methyl-1H-pyrazolo[3,4-d]pyrimidin-6-yl)phenoxy)-N-cyclobutylacetamide] | 251 to 500 | 
5 | O=C(COc1cccc(-c2nc(Nc3ccc(-c4cn[nH]c4)cc3)c3sccc3n2)c1)N1CCOCC1 [Example 38, 2-(3-(4-((4-(1H-pyrazol-4-yl)phenyl)amino)thieno[3,2-d]pyrimidin-2-yl)phenoxy)-1-morpholinoethan-1-one] | 501 to 1000 | 
6 | CC(C)NC(=O)COc1cccc(-c2nc(Nc3ccc(-c4cn[nH]c4)cc3)c3cccnc3n2)c1 [Example 52, 2-(3-(4-((4-(1H-pyrazol-4-yl)phenyl)amino)pyrido[2,3-d]pyrimidin-2-yl)phenoxy)-N-isopropylacetamide] | 501 to 1000 | 
7 | CNC(=O)COc1cccc(-c2nc(Nc3ccc(-c4cn[nH]c4)cc3)c3ccsc3n2)c1 [Example 45, 2-(3-(4-((4-(1H-pyrazol-4-yl)phenyl)amino)thieno[2,3-d]pyrimidin-2-yl)phenoxy)-N-methylacetamide] | > 1000 | 
8 | Cn1cnc2c(Nc3ccc(-c4cn[nH]c4)cc3)nc(-c3cccc(OCC(=O)NC4CCCC4)c3)nc21 [Example 30] | 101 to 250 | 
9 | CCC(CC)NC(=O)COc1cccc(-c2nc3c(c(Nc4ccc(-c5cn[nH]c5)cc4)n2)COC3)c1 [Example 76, 2-(3-(4-((4-(1H-pyrazol-4-yl)phenyl)amino)-5,7-dihydrofuro[3,4-d]pyrimidin-2-yl)phenoxy)-N-(pentan-3-yl)acetamide dihydrochloride] | 10 to 100 | 
10 | CC(C)NC(=O)COc1cccc(-c2nc(Nc3ccc(-c4cn[nH]c4)cc3)c3c(cnn3C)n2)c1 [Example 58, 2-(3-(7-((4-(1H-pyrazol-4-yl)phenyl)amino)-1-methyl-1H-pyrazolo[4,3-d]pyrimidin-5-yl)phenoxy)-N-isopropylacetamide] | > 1000 | 
11 | O=C(Nc1cccc(-c2nc3c(c(Nc4ccc(-c5cn[nH]c5)cc4)n2)COC3)c1)c1cncc(Cl)c1 [Example 69, N-(3-(4-((4-(1H-pyrazol-4-yl)phenyl)amino)-5,7-dihydrofuro[3,4-d]pyrimidin-2-yl)phenyl)-5-chloronicotinamide] | 10 to 100 | 
12 | CC[C@H]1/C=C/C=C/C[C@@H](C)[C@H](O)[C@@](C)(O)C(=O)[C@@H](C)[C@H](O)[C@@H](C)C(=O)[C@@H](C)[C@H](O)[C@@H](C)/C=C/C(=O)O[C@@H]2[C@H](C)[C@H](CC1)O[C@]1(CC[C@H](C)[C@H](C[C@@H](C)O)O1)[C@H]2C [oligomycin, Oligomycin, reference compound] |  | neither oligomycin alone nor control GLUT1 inhibitors substantially decrease cellular ATP levels
13 | Cn1cnc2c(Nc3ccc(-c4cn[nH]c4)cc3)nc(-c3cccc(NC(=O)CN4CCOCC4)c3)nc21 [Example 6, N-(3-(6-((4-(1H-pyrazol-4-yl)phenyl)amino)-9-methyl-9H-purin-2-yl)phenyl)-2-morpholinoacetamide] | > 1000 | 

The next lines start with results.

Row | IC50 [nM] | Structure (SMILES) | cellular ATP levels, agent alone (alone)
14 | 10 to 100 | CCC(C)(C)NC(=O)COc1cccc(-c2nc3c(c(Nc4ccc(-c5cn[nH]c5)cc4)n2)CNCC3)c1 [Example 128, 2-(3-(4-((4-(1H-pyrazol-4-yl)phenyl)amino)-5,6,7,8-tetrahydropyrido[4,3-d]pyrimidin-2-yl)phenoxy)-N-(tert-pentyl)acetamide] | 
15 | 10 to 100 | CC(C)CNC(=O)COc1cccc(-c2nc3c(c(Nc4ccc(-c5cn[nH]c5)cc4)n2)CN(C(=O)C(C)C)CC3)c1 [Example 154, 2-(3-(4-((4-(1H-pyrazol-4-yl)phenyl)amino)-6-isobutyryl-5,6,7,8-tetrahydropyrido[4,3-d]pyrimidin-2-yl)phenoxy)-N-isobutylacetamide] | 
16 | 101 to 250 | CC(=O)N1Cc2nc(-c3cccc(OCC(=O)NC(C)C)c3)nc(Nc3ccc(-c4cn[nH]c4)cc3)c2C1 [Example 140, 2-(3-(4-((4-(1H-pyrazol-4-yl)phenyl)amino)-6-acetyl-6,7-dihydro-5H-pyrrolo[3,4-d]pyrimidin-2-yl)phenoxy)-N-isopropylacetamide] | 
17 | 501 to 1000 | O=C(Nc1cccc(-c2nc(Nc3ccc(-c4cn[nH]c4)cc3)c3sccc3n2)c1)c1ccncc1 [Example 174, N-(3-(4-((4-(1H-pyrazol-4-yl)phenyl)amino)thieno[3,2-d]pyrimidin-2-yl)phenyl)isonicotinamide] | 
18 | > 1000 | CC(C)NC(=O)COc1cc(-c2nc3c(c(Nc4ccc(-c5cn[nH]c5)cc4)n2)COC3)ccc1F [Example 95, 2-(5-(4-((4-(1H-pyrazol-4-yl)phenyl)amino)-5,7-dihydrofuro[3,4-d]pyrimidin-2-yl)-2-fluorophenoxy)-N-isopropylacetamide] | 
19 | 10 to 100 | CC(C)(C)CNC(=O)COc1cccc(-c2nc3c(c(Nc4ccc(-c5cn[nH]c5)cc4)n2)CNCC3)c1 [Example 167, 2-(3-(4-((4-(1H-pyrazol-4-yl)phenyl)amino)-5,6,7,8-tetrahydropyrido[4,3-d]pyrimidin-2-yl)phenoxy)-N-neopentylacetamide] | 
20 | 10 to 100 | O=C(COc1cccc(-c2nc3c(c(Nc4ccc(-c5cn[nH]c5)cc4)n2)COC3)c1)NC1CCCCC1 [Example 89, 2-(3-(4-((4-(1H-pyrazol-4-yl)phenyl)amino)-5,7-dihydrofuro[3,4-d]pyrimidin-2-yl)phenoxy)-N-cyclohexylacetamide] | 
21 | 101 to 250 | CC(=O)N1CCc2nc(-c3cccc(OCC(=O)NC(C)C)c3)nc(Nc3ccc(-c4cn[nH]c4)cc3)c2C1 [Example 112, 2-(3-(4-((4-(1H-pyrazol-4-yl)phenyl)amino)-6-acetyl-5,6,7,8-tetrahydropyrido[4,3-d]pyrimidin-2-yl)phenoxy)-N-isopropylacetamide] | 
22 | 501 to 1000 | Fc1cncc(CNc2cccc(-c3nc4c(c(Nc5ccc(-c6cn[nH]c6)cc5)n3)COC4)c2)c1 [Example 92, N-(4-(1H-pyrazol-4-yl)phenyl)-2-(3-(((5-fluoropyridin-3-yl)methyl)amino)phenyl)-5,7-dihydrofuro[3,4-d]pyrimidin-4-amine] | 
23 | 251 to 500 | CC(C)N1CCc2nc(-c3cccc(OCC(=O)NC4CCC4)c3)nc(Nc3ccc(-c4cn[nH]c4)cc3)c2C1 [Example 159, 2-(3-(4-((4-(1H-pyrazol-4-yl)phenyl)amino)-6-isopropyl-5,6,7,8-tetrahydropyrido[4,3-d]pyrimidin-2-yl)phenoxy)-N-cyclobutylacetamide] | 
